Experimental data published in patent US4921850A, “3-propenylcephem derivative” (Eisai Co., Ltd., priority 1986, dated 1990).
Converted amounts (≈) assume the structure as drawn. Read-outs that look alike come from different tables or passages of the source.

Columns and labels:
[1] = in vivo; conditions: read-out: values of acute toxicity
Excerpt: (1) Acute toxicity in mouse:
The compounds according to this invention dissolved in a physiological saline solution were intravenously dosed to five ICR male 6 weeks-old mouse.

[2] = test system: Escher. coli NIHJ; test: Anti-bacterial activity (MIC), agar dilution; assay type: cell-based
In short: (§1)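 Read-out is MIC (μg/ml) after 18 hours at 37° C on Mueller-Hinton agar with twofold antibiotic series. Inoculum: overnight broth cultures diluted to ~10^6 CFU/ml, spotted.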

[3] = test system: Pseud. aeruginosa EP-01; test: Anti-bacterial activity (MIC), agar dilution; assay type: cell-based
In short: as §1

[4] = test system: Ser. marcescens ES-75; test: Anti-bacterial activity (MIC), agar dilution; assay type: cell-based; conditions: Ser. marcescens ES-75, agar dilution, about 10^6 CFU/ml, 18 hours, 37° C.
In short: as §1

[5] = test system: Morganella morganii EP-14; test: Anti-bacterial activity (MIC), agar dilution; assay type: cell-based; conditions: about 10^6 CFU/ml, 37° C.
In short: as §1

[6] = test system: Staph. aureus 209-P; test: Anti-bacterial activity (MIC), agar dilution; assay type: cell-based; conditions: Staph. aureus 209-P, agar dilution, about 10^6 CFU/ml, 18 hours, 37° C.
In short: as §1

[7] = test system: Kleb. pneumoniae EK-6; test: Anti-bacterial activity (MIC), agar dilution; assay type: cell-based
In short: as §1

[8] = intravenous, physiological saline solution, five ICR male 6 weeks-old mouse
[9] = Serratia marcescens, ES75, 18 h, read-out: MIC
[10] = Morganella morganii, EP14, 18 h, read-out: MIC
[11] = Staphylococcus aureus, 209P, 18 h, read-out: MIC
[12] = Klebsiella pneumoniae, EK6, 18 h, Kleb. pneumoniae EK-6, agar dilution, about 10^6 CFU/ml, 18 hours, 37° C., read-out: MIC
[13] = Escherichia coli, 18 h, Escher. coli NIHJ, agar dilution, about 10^6 CFU/ml, 18 hours, 37° C., read-out: MIC
[14] = Pseudomonas aeruginosa, EP01, 18 h, Pseud. aeruginosa EP-01, agar dilution, about 10^6 CFU/ml, 18 hours, 37° C., read-out: MIC

SMILES | LD50 [1, 8] | MIC ([2]; Escherichia coli, 18 h) | MIC ([3]; Pseudomonas aeruginosa, EP01, 18 h) | MIC [4, 9] | MIC [5, 10] | MIC [6, 11] | MIC [7, 12] | LD50 ([1]; mouse, iv) | MIC [2, 13] | MIC [3, 14] | MIC ([2]; Escher. coli NIHJ, agar dilution, about 10^6 CFU/ml, 18 hours, 37° C.) | MIC ([3]; Pseud. aeruginosa EP-01, agar dilution, about 10^6 CFU/ml, 18 hours, 37° C.) | MIC [4] | MIC ([5]; 18 hours) | MIC [6] | MIC ([7]; Kleb. pneumoniae EK-6, agar dilution, about 10^6 CFU/ml, 18 hours, 37° C.) | MIC ([7]; Klebsiella pneumoniae, EK6, 18 h)
NC(=O)C1CC[N+](C/C=C/C2=C(C(=O)[O-])N3C(=O)[C@@H](NC(=O)/C(=N\OCF)c4nsc(N)n4)[C@H]3SC2)(CCO)CC1 (single isomer, unassigned) [Example 2-1, 7β-[2-(5-Amino-1,2,4-thiadiazol-3-yl)-(Z)-2-fluoromethoxyiminoacetamido]-3-[(E)-3-[1-(2-hydroxyethyl)-4-carbamoyl-1-piperidinio]-1-propen-1-yl]-3-cephem-4-carboxylate] | > 2000 mg/kg | 0.05 µg/mL (≈ 0.0816 µM) | 1.56 µg/mL (≈ 2.55 µM) | 0.05 µg/mL (≈ 0.0816 µM) | 0.05 µg/mL (≈ 0.0816 µM) | 0.4 µg/mL (≈ 0.653 µM) | 0.05 µg/mL (≈ 0.0816 µM) | – | – | – | – | – | – | – | – | – | –
C[N+]1(C/C=C/C2=C(C(=O)[O-])N3C(=O)[C@@H](NC(=O)/C(=N\OCF)c4nsc(N)n4)[C@H]3SC2)C[C@H](O)C[C@@H]1CO (single isomer, unassigned) [Example 6-1, 7β-[2-(5-Amino-1,2,4-thiadiazol-3-yl)-(Z)-2-fluoromethoxyiminoacetamido]-3-[(E)-3-(4R-hydroxy-2R-hydroxymethyl-1-methyl-1-pyrrolidinio)-1-propen-1-yl]-3-cephem-4-carboxylate] | – | – | – | ≤ 0.025 µg/mL | ≤ 0.025 µg/mL | 0.2 µg/mL (≈ 0.35 µM) | ≤ 0.025 µg/mL | > 2000 mg/kg | 0.05 µg/mL (≈ 0.0875 µM) | 0.8 µg/mL (≈ 1.4 µM) | – | – | – | – | – | – | –
Nc1nc(/C(=N/OCF)C(=O)N[C@@H]2C(=O)N3C(C(=O)[O-])=C(/C=C/C[N+]4(CCO)C[C@H](O)C[C@H]4CO)CS[C@H]23)ns1 (single isomer, unassigned) [Example 7-2, 7β-[2-(5-Amino-1,2,4-thiadiazol-3-yl)-(Z)-2-fluoromethoxyiminoacetamido]-3-[(E)-3-[4R-hydroxy-1-(2-hydroxyethyl)-2S-hydroxymethyl-1-pyrrolidinio]-1-propen-1-yl]-3-cephem-4-carboxylate] | > 2000 mg/kg | – | – | – | – | – | – | – | – | – | ≤ 0.025 µg/mL | 0.8 µg/mL (≈ 1.33 µM) | ≤ 0.025 µg/mL | ≤ 0.025 µg/mL | 0.2 µg/mL (≈ 0.332 µM) | ≤ 0.025 µg/mL | –
CC(C(N)=O)[N+]1(C/C=C/C2=C(C(=O)[O-])N3C(=O)[C@@H](NC(=O)/C(=N\OCF)c4nsc(N)n4)[C@H]3SC2)CCCC1 (single isomer, unassigned) [Example 13-1] | > 2000 mg/kg | – | – | ≤ 0.025 µg/mL | ≤ 0.025 µg/mL | 0.2 µg/mL (≈ 0.343 µM) | ≤ 0.025 µg/mL | – | ≤ 0.025 µg/mL | 0.8 µg/mL (≈ 1.37 µM) | – | – | – | – | – | – | –
C[C@@H](C(N)=O)[N+](C)(C)C/C=C/C1=C(C(=O)[O-])N2C(=O)[C@@H](NC(=O)/C(=N\OCF)c3nsc(N)n3)[C@H]2SC1 [Example 3-1] | > 2000 mg/kg | – | – | 0.05 µg/mL (≈ 0.0898 µM) | ≤ 0.025 µg/mL | 0.2 µg/mL (≈ 0.359 µM) | ≤ 0.025 µg/mL | – | ≤ 0.025 µg/mL | 0.8 µg/mL (≈ 1.44 µM) | – | – | – | – | – | – | –
C[C@H](C(N)=O)[N+](C)(C)C/C=C/C1=C(C(=O)[O-])N2C(=O)[C@@H](NC(=O)/C(=N\OCF)c3nsc(N)n3)[C@H]2SC1 [Example 3-2, 7β-[2-(5-Amino-1,2,4-thiadiazol-3-yl)-(Z)-2-fluoromethoximinoacetamido]-3-[(E)-3-[(1R-carbamoylethyl)dimethylammonio]-1-propen-1-yl]-3-cephem-4-carboxylate] | > 2000 mg/kg | – | – | 0.1 µg/mL (≈ 0.18 µM) | ≤ 0.025 µg/mL | 0.2 µg/mL (≈ 0.359 µM) | ≤ 0.025 µg/mL | – | ≤ 0.025 µg/mL | 1.56 µg/mL (≈ 2.8 µM) | – | – | – | – | – | – | –
C[N+](C)(C/C=C/C1=C(C(=O)[O-])N2C(=O)[C@@H](NC(=O)/C(=N\OCF)c3nsc(N)n3)[C@H]2SC1)[C@H](CO)C(N)=O [Example 5, 7β-[2-(5-Amino-1,2,4-thiadiazol-3-yl)-(Z)-2-fluoromethoxyiminoacetamido]-3-[(E)-3-[(1R-carbamoyl-2-hydroxyethyl)dimethylammonio]-1-propen-1-yl]-3-cephem-4-carboxylate] | > 2000 mg/kg | – | – | ≤ 0.025 µg/mL | ≤ 0.025 µg/mL | 0.2 µg/mL (≈ 0.349 µM) | ≤ 0.025 µg/mL | – | ≤ 0.025 µg/mL | 0.8 µg/mL (≈ 1.4 µM) | – | – | – | – | – | – | –
NC(=O)C[N+]1(C/C=C/C2=C(C(=O)[O-])N3C(=O)[C@@H](NC(=O)/C(=N\OCF)c4nsc(N)n4)[C@H]3SC2)CCC(O)C1 (stereo partly drawn) [Example 9-1, 7β-[2-(5-Amino-1,2,4-thiadiazol-3-yl)-(Z)-2-fluoromethoxyiminoacetamido]-3-[(E)-3-(1-carbamoylmethyl-3-hydroxy-1-pyrrolidinio)-1-propen-1-yl]-3-cephem-4-carboxylate] | > 2000 mg/kg | – | – | ≤ 0.025 µg/mL | ≤ 0.025 µg/mL | 0.4 µg/mL (≈ 0.684 µM) | ≤ 0.025 µg/mL | – | ≤ 0.025 µg/mL | 0.8 µg/mL (≈ 1.37 µM) | – | – | – | – | – | – | –
C[N+]1(C/C=C/C2=C(C(=O)[O-])N3C(=O)[C@@H](NC(=O)/C(=N\OCF)c4nsc(N)n4)[C@H]3SC2)CCN(S(=O)(=O)O)CC1 [Example 10, 7β-[2-(5-Amino-1,2,4-thiadiazol-3-yl)-(Z)-2-fluoromethoxyiminoacetamido]-3-[(E)-3-(1-methyl-4-sulfo-1-piperazinio)-1-propen-1-yl]-3-cephem-4-carboxylate] | > 2000 mg/kg | – | – | ≤ 0.025 µg/mL | ≤ 0.025 µg/mL | 0.8 µg/mL (≈ 1.29 µM) | ≤ 0.025 µg/mL | – | ≤ 0.025 µg/mL | 1.56 µg/mL (≈ 2.51 µM) | – | – | – | – | – | – | –
NC(=O)C[N+]1(C/C=C/C2=C(C(=O)[O-])N3C(=O)[C@@H](NC(=O)/C(=N\OCF)c4nsc(N)n4)[C@H]3SC2)CCC(O)CC1 (stereo partly drawn) [Example 11, 7β-[2-(5-Amino-1,2,4-thiadiazol-3-yl)-(Z)-2-fluoromethoxyiminoacetamido]-3-[(E)-3-(1-carbamoylmethyl-4-hydroxy-1-piperidinio)-1-propen-1-yl]-3-cephem-4-carboxylate] | > 2000 mg/kg | – | – | ≤ 0.025 µg/mL | ≤ 0.025 µg/mL | 0.4 µg/mL (≈ 0.668 µM) | ≤ 0.025 µg/mL | – | ≤ 0.025 µg/mL | 0.8 µg/mL (≈ 1.34 µM) | – | – | – | – | – | – | –
CC12C[N+](C/C=C/C3=C(C(=O)[O-])N4C(=O)[C@@H](NC(=O)/C(=N\OCF)c5nsc(N)n5)[C@H]4SC3)(CCO1)CCO2 [Example 12, 7β-[2-(5-Amino-1,2,4-thiadiazol-3-yl)-(Z)-2-fluoromethoxyiminoacetamido]-3-[(E)-3-(5-aza-1-methyl-2,8-dioxabicyclo[3.3.1]nona-5-io)-1-propen-1-yl]-3-cephem-4-carboxylate] | > 2000 mg/kg | – | – | 0.1 µg/mL (≈ 0.171 µM) | 0.05 µg/mL (≈ 0.0857 µM) | 0.4 µg/mL (≈ 0.685 µM) | – | – | 0.05 µg/mL (≈ 0.0857 µM) | 1.56 µg/mL (≈ 2.67 µM) | – | – | – | – | – | – | ≤ 0.025 µg/mL
CC[N+](CC)(C/C=C/C1=C(C(=O)[O-])N2C(=O)[C@@H](NC(=O)/C(=N\OCF)c3nsc(N)n3)[C@H]2SC1)CC(N)=O [Example 96] | > 2000 mg/kg | – | – | ≤ 0.025 µg/mL | ≤ 0.025 µg/mL | 0.2 µg/mL (≈ 0.35 µM) | ≤ 0.025 µg/mL | – | ≤ 0.025 µg/mL | 0.8 µg/mL (≈ 1.4 µM) | – | – | – | – | – | – | –
C[N+]1(C/C=C/C2=C(C(=O)[O-])N3C(=O)[C@@H](NC(=O)/C(=N\OCF)c4nsc(N)n4)[C@H]3SC2)CCN(C(N)=O)CC1 [Example 121, 7β-[2-(5-Amino-1,2,4-thiadiazol-3-yl)-(Z)-2-fluoromethoxyiminoacetamido]-3-[(E)-3-(1-methyl-4-carbamoyl-1-piperazinio)-1-propen-1-yl]-3-cephem-4-carboxylate] | > 2000 mg/kg | – | – | 0.1 µg/mL (≈ 0.171 µM) | ≤ 0.025 µg/mL | 0.2 µg/mL (≈ 0.343 µM) | ≤ 0.025 µg/mL | – | ≤ 0.025 µg/mL | 0.8 µg/mL (≈ 1.37 µM) | – | – | – | – | – | – | –
CC(=O)C[N+](C)(C)C/C=C/C1=C(C(=O)[O-])N2C(=O)[C@@H](NC(=O)/C(=N\OCF)c3nsc(N)n3)[C@H]2SC1 [Example 137, 7β-[2-(5-Amino-1,2,4-thiadiazol-3-yl)-(Z)-2-fluoromethoxyiminoacetamido]-3-[(E)-3-[(2-oxopropyl)dimethylammonio]-1-propen-1-yl]-3-cephem-4-carboxylate] | > 2000 mg/kg | – | – | – | – | – | – | – | – | – | – | – | – | – | – | – | –
N#CCO/N=C(\C(=O)N[C@@H]1C(=O)N2C(C(=O)[O-])=C(/C=C/C[N+]34CCCN3CCC4)CS[C@H]12)c1nsc(N)n1 [Example 161, 7β-[2-(5-Amino-1,2,4-thiadiazol-3-yl)-(Z)-2-cyanomethoxyiminoacetoamido]-3-[(E)-3-(1,5-diazabicyclo[3.3.0]octane-1-io)-1-propen-1-yl]-3-cephem-4-carboxylate] | – | – | – | 0.2 µg/mL (≈ 0.357 µM) | 0.1 µg/mL (≈ 0.179 µM) | 0.2 µg/mL (≈ 0.357 µM) | 0.05 µg/mL (≈ 0.0893 µM) | – | 0.05 µg/mL (≈ 0.0893 µM) | 1.56 µg/mL (≈ 2.79 µM) | – | – | – | – | – | – | –
